8 compounds from patent US4883815A, “Hydrocinnamic acid derivatives” (Hoffmann-La Roche Inc., priority 1987, dated 1989) can be followed below.

Bounds are passed on as bounds.

The LD50 is the dose at which mortality reaches 50%. A high value points to lower toxicity.

The first data set can be described thus: acute toxicity, single oral administration. The settings on record: mouse, in vivo, po. The text has this:
Moreover, the Table contains data for the acute toxicity (LD50 in mg/kg in the case of single oral administration to mice).
In the case of `CC(=O)NCCCC(=O)c1ccc(Cl)cc1CCC(N)=O` [Example 19, 2-(4-acetamidobutyryl)-5-chlorohydrocinnamide], the LD50 is above 4000 mg/kg.

In turn, `CCCCCCCOC(=O)CCc1cc(Cl)ccc1C(=O)CCCNC(C)=O` [H H Cl H H O(CH2)6CH3 CH3 H H Oxo] came in with an LD50 above 5000 mg/kg.

Still in this data set, the particulars now being: mouse, in vivo; acute toxicity, single oral administration to mice.
In turn, `CCOC(=O)CCc1cc(Cl)ccc1C(=O)CCCNC(=O)CCCNC(C)=O` [Example 8, ethyl 2-[4-(4-acetamidobutyramido)butyryl]-5-chlorohydrocinnamate] came in with an LD50 above 5000 mg/kg.

As for `CCOC(=O)CC[C@H](NC(=O)CCc1cc(Cl)ccc1C(=O)CCCNC(C)=O)C(=O)OCC` [Example 29, diethyl N-[2-(4-acetamidobutyryl)-5-chlorohydrocinnamoyl]-L-glutamate], the LD50 was above 5000 mg/kg.

With `CCCOC(=O)CCc1cc(Cl)ccc1C(=O)CCCNC(C)=O` [Example 3, propyl 2-(4-acetamidobutyryl)-5-chlorohydrocinnamate], the LD50 was above 5000 mg/kg.

Compound `CC(=O)NCCCC(=O)c1ccc(Cl)cc1CCC(=O)OC(C)C` [Example 4, isopropyl 2-(4-acetamidobutyryl)-5-chlorohydrocinnamate] had an LD50 above 4000 mg/kg.

`CCOC(=O)CCc1cc(Cl)ccc1C(=O)CCCNC(C)=O` [Example 2, ethyl 2-(4-acetamidobutyryl)-5-chloro-hydrocinnamate] displayed an LD50 above 5000 mg/kg.

As for `CCOC(=O)CNC(=O)CCc1cc(Cl)ccc1C(=O)CCCNC(C)=O` [Example 30, ethyl N-[2-(4-acetamidobutyryl)-5-chlorohydrocinnamoyl]-glycinate], the LD50 was above 5000 mg/kg.
